Source: the supplement of paper PMC10307832

How the values were obtained:
Assay in all cases: relative viability (nuclei count vs DMSO), 5 days (fraction); higher = more cells survive
AZD1208 + Dasatinib = compound: N[C@@H]1CCCN(c2c(/C=C3\SC(=O)NC3=O)cccc2-c2ccccc2)C1 [AZD1208] + Cc1nc(Nc2ncc(C(=O)Nc3c(C)cccc3Cl)s2)cc(N2CCN(CCO)CC2)n1 [Dasatinib] (partner 0.075 µM)
How it was run: (§1)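 For relative viability, nuclei counts in treated wells were divided by those in vehicle wells. Lung cancer cell lines had been pin-tool dosed in 1536-well plates the day after seeding and cultured for 5 days, then fixed and stained in one step (final 0.05% Triton X-100, 1% formaldehyde, 1 ug/ml Hoechst) and imaged at 4×. Doses were one drug alone or a fixed anchor-drug dose plus five library-drug doses (not always all listed) in √10 steps, and values are duplicate-plate medians.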

XMD14-99 + Decitabine = compound: CN1CCN(CC1)C2=CC(=C(C=C2)NC3=NC(=C(S3)C(=O)C4=C(C=CC=C4Cl)Cl)N)OC [XMD14-99] + Nc1ncn([C@H]2C[C@H](O)[C@@H](CO)O2)c(=O)n1 [Decitabine] (partner 2 µM)
How it was run: as §1

AZD1208 + Luminespib = compound: N[C@@H]1CCCN(c2c(/C=C3\SC(=O)NC3=O)cccc2-c2ccccc2)C1 [AZD1208] + CCNC(=O)c1noc(-c2cc(C(C)C)c(O)cc2O)c1-c1ccc(CN2CCOCC2)cc1 [Luminespib] (partner 0.01 µM)
How it was run: as §1

XMD14-99 + Bortezomib = compound: CN1CCN(CC1)C2=CC(=C(C=C2)NC3=NC(=C(S3)C(=O)C4=C(C=CC=C4Cl)Cl)N)OC [XMD14-99] + CC(C)C[C@H](NC(=O)[C@H](Cc1ccccc1)NC(=O)c1cnccn1)B(O)O [Bortezomib] (partner 0.002 µM)
How it was run: as §1

| Cell Line | relative viability (AZD1208 + Dasatinib; first compound 0.08 µM) | relative viability (AZD1208 + Dasatinib; first compound 0.253 µM) | relative viability (AZD1208 + Dasatinib; first compound 0.8 µM) | relative viability (AZD1208 + Dasatinib; first compound 2.53 µM) | relative viability (AZD1208 + Dasatinib; first compound 8 µM) | relative viability (XMD14-99 + Decitabine; first compound 0.08 µM) | relative viability (XMD14-99 + Decitabine; first compound 0.8 µM) | relative viability (XMD14-99 + Decitabine; first compound 2.53 µM) | relative viability (XMD14-99 + Decitabine; first compound 8 µM) | relative viability (AZD1208 + Luminespib; first compound 0.08 µM) | relative viability (AZD1208 + Luminespib; first compound 0.253 µM) | relative viability (AZD1208 + Luminespib; first compound 0.8 µM) | relative viability (AZD1208 + Luminespib; first compound 2.53 µM) | relative viability (AZD1208 + Luminespib; first compound 8 µM) | relative viability (XMD14-99 + Bortezomib; first compound 0.08 µM) | relative viability (XMD14-99 + Bortezomib; first compound 0.8 µM) | relative viability (XMD14-99 + Bortezomib; first compound 2.53 µM) | relative viability (XMD14-99 + Bortezomib; first compound 8 µM) |
| --- | --- | --- | --- | --- | --- | --- | --- | --- | --- | --- | --- | --- | --- | --- | --- | --- | --- | --- |
| NCI-H1944 | 0.196 | 0.178 | 0.175 | 0.193 | 0.16 | 0.48 | 0.458 | 0.414 | 0.372 | 0.765 | 0.711 | 0.548 | 0.557 | 0.346 | – | – | – | – |
| NCI-H2170 | 0.615 | 0.542 | 0.478 | 0.485 | 0.406 | 0.49 | 0.423 | 0.444 | 0.395 | 0.65 | 0.656 | 0.632 | 0.512 | 0.321 | – | – | – | – |
| NCI-H2228 | 0.476 | 0.521 | 0.398 | 0.43 | 0.342 | – | – | – | – | 0.162 | 0.112 | 0.125 | 0.136 | 0.163 | 1.17 | 0.974 | 0.871 | 0.337 |
| NCI-H2342 | 0.284 | 0.354 | 0.28 | 0.3 | 0.267 | 0.724 | 0.739 | 0.765 | 0.638 | 0.686 | 0.713 | 0.653 | 0.672 | 0.533 | – | – | – | – |
| SK-MES-1 | 0.336 | 0.336 | 0.284 | 0.341 | 0.306 | 0.421 | 0.389 | 0.451 | 0.336 | 0.771 | 0.736 | 0.607 | 0.689 | 0.531 | – | – | – | – |
| SW 900 | 0.456 | 0.693 | 0.427 | 0.547 | 0.367 | 0.413 | 0.443 | 0.386 | 0.419 | 0.191 | 0.172 | 0.167 | 0.185 | 0.162 | – | – | – | – |
